Source: paper PMC11066877, “Development and Characterization of Novel FAP-Targeted Theranostic Pairs: A Bench-to-Bedside Study” (Research, 2023)
Where two headings read alike, the source gives them in different places.

Columns and labels:
[1] = Ex vivo biodistribution of 177Lu-labeled radioligands in tumor-free nude mice; conditions: mouse, blood, intravenous, 1.11 MBq, total radioactivity, 24 h p.i., read-out: accumulation in the blood pool (biodistribution)
Text: (§1) After imaging collection and image reconstruction, samples from euthanized experimental mice, including blood and multiple significant organs, were harvested and weighed. The radioactivity in each collected tissue was counted using an automated gamma counter (Wizard 2480, PerkinElmer) and the accumulation of radioactivity in different tissues and organs was quantified and expressed as %ID/g (mean ± SD). [^177Lu]Lu-DOTA-FD1 (~1.11 MBq, n = 3), [^177Lu]Lu-DOTA-FD2 (~1.11 MBq, n = 3), and [^177Lu]Lu-DOTA-FD3 (~1.11 MBq, n = 3) were injected into the tail vein of free nude mice at 6 h, 24 h, and 24 h for ex vivo biodistribution to verify the circulation time of the 3 probes in vivo. Biodistribution data from tumor-bearing mice injected with [^177Lu]Lu-DOTA-FD3 at 45 h (~1.11 MBq, n = 4) and 90 h (~1.11 MBq, n = 3) validated the prolonged enrichment of the probe at the tumor site. At the end of each probe imaging and radioactivity counting study, tumor tissues were fixed in paraformaldehyde tissue fixative. Briefly, sections of 10 μm were cut and stained for H&E following the standard protocols. IHC staining with a FAP antibody (ab227703, Abcam) was performed only on tumor tissues following accepted techniques.

[2] = Ex vivo biodistribution of [177Lu]Lu-DOTA-FD3 in HT1080-FAP tumor models; design: species or system mice; conditions: nude (thymus-free), mouse, 1.11 MBq, total radioactivity
Text: as §1

[3] = Stability of 177Lu-labeled radiopharmaceuticals in FBS and PBS; type: in vitro ADME; conditions: 50% FBS and 50% PBS, checked at 2 h and 24 h
Experimental: To perform ^68Ga-labeling, approximately 20 nmol of FD1, FD2, or FD3 was dissolved in 20 μl of dimethyl sulfoxide and 230 μl of sterile deionized water. This mixture was added to 400 μl of ^68GaCl3 solution (containing 37 MBq) in 0.1 M HCl, with pH adjusted to 4.0 using 0.1 M NH4OAC. The mixture was incubated at 100 °C for 10 min without any additional purification steps. For ^177Lu-labeling, high-purity radionuclide ^177LuCl3 in 0.04 M HCl (3.9 GBq in 97 μl) was purchased from ITM (Munich, Germany). ^177LuCl3 solution (555 MBq in 0.04 M HCl) was added to 500 μl of 1M NH4OAC (pH = 5), followed by the addition of 375 nmol of FD1, FD2, or FD3. The solution was shaken at a temperature of 100 °C for a duration of 30 min. Instant thin-layer chromatography (iTLC; Eckert & Ziegler Radiopharma Inc.) was used to evaluate the RCP of the final products. For iTLC, the mobile phase consisted of 1 M NH4OAC and methyl alcohol in a ratio of 1:1. The final solution must be adjusted to pH 7.0 before being injected into the experimental mice via the tail vein. The stability of ^177Lu-labeled radiopharmaceuticals was evaluated in a mixture of 50% FBS and 50% PBS at 2 h and 24 h after preparation. In the process of preparing each [^68Ga]Ga-DOTA-FD1 for clinical imaging, the end product underwent sterilization by passing it through a 0.22-μm Millipore filter.

T3M-4 tumor = experiment: Radioligand therapy in T3M-4 pancreatic cancer models; type: in vivo, mice; conditions: T3M-4 models
Experimental: HT1080-FAP tumor models with higher levels of FAP expression were utilized in this study. Tumor-bearing mice were subjected to therapy experiments when the tumor volume reached 50 to 180 mm^3. Tumor models with different tumor volumes were injected with different therapeutic doses. Mice bearing HT1080-FAP tumors of slightly larger tumor volumes were randomly assigned into 4 groups (n = 5 per group): control group and treatment groups with 800 μCi of [^177Lu]Lu-DOTA-FD1, 400 μCi of [^177Lu]Lu-DOTA-FD3, and 600 μCi [^177Lu]Lu-DOTA-FD3. Mice bearing HT1080-FAP tumors of slightly smaller tumor volumes were also divided into 4 groups (n = 6 per group): control group and treatment groups with 200 μCi of [^177Lu]Lu-DOTA-FD1, 200 μCi of [^177Lu]Lu-DOTA-FD2, and 200 μCi of [^177Lu]Lu-DOTA-FD3. Tumor volume and mice body weight were examined daily after a single-dose injection. Weight monitoring is expressed as a percentage of initial weight on the measurement day. Tumor volume was measured as half of the length × width squared times. Mice were euthanized when the tumor volume exceeded 1,500 mm^3, the tumor ruptured, or when it lost more than 20% of its body weight. T3M-4 tumor models with abundant stroma were established to validate the therapeutic efficacy of [^177Lu]Lu-DOTA-FD3. […]

HT1080-FAP tumor = experiment: FAP-targeted radioligand therapy in HT1080-FAP tumor models; type: in vivo, mice
Experimental: HT1080-FAP tumor models with higher levels of FAP expression were utilized in this study. Tumor-bearing mice were subjected to therapy experiments when the tumor volume reached 50 to 180 mm^3. Tumor models with different tumor volumes were injected with different therapeutic doses. Mice bearing HT1080-FAP tumors of slightly larger tumor volumes were randomly assigned into 4 groups (n = 5 per group): control group and treatment groups with 800 μCi of [^177Lu]Lu-DOTA-FD1, 400 μCi of [^177Lu]Lu-DOTA-FD3, and 600 μCi [^177Lu]Lu-DOTA-FD3. Mice bearing HT1080-FAP tumors of slightly smaller tumor volumes were also divided into 4 groups (n = 6 per group): control group and treatment groups with 200 μCi of [^177Lu]Lu-DOTA-FD1, 200 μCi of [^177Lu]Lu-DOTA-FD2, and 200 μCi of [^177Lu]Lu-DOTA-FD3. Tumor volume and mice body weight were examined daily after a single-dose injection. Weight monitoring is expressed as a percentage of initial weight on the measurement day. Tumor volume was measured as half of the length × width squared times. Mice were euthanized when the tumor volume exceeded 1,500 mm^3, the tumor ruptured, or when it lost more than 20% of its body weight. T3M-4 tumor models with abundant stroma were established to validate the therapeutic efficacy of [^177Lu]Lu-DOTA-FD3. When the tumor volume grew to 100 to 150 mm^3, the mice were randomly divided into 2 groups (n = 7 per group): free ^177Lu treatment group and 500 μCi [^177Lu]Lu-DOTA-FD3 treatment group. Tumor volume and mice body weight were examined every 2 days.

[4] = average tumor volume 180 mm^3 at onset, single dose 400 μCi or 600 μCi

tissue uptake at 24 h [1]: 28.1 ± 3.52 %ID/g
tissue uptake at 45 h ([2]; 45 h, read-out: tumor uptake (biodistribution)): 10.5 ± 1.02 %ID/g
tissue uptake at 90 h ([2]; 90 h, read-out: tumor uptake (biodistribution)): 12.4 ± 3.12 %ID/g
tissue uptake at 45 h ([2]; blood, 45 h p.i., read-out: blood pool retention (biodistribution)): 16.3 ± 2.5 %ID/g
tissue uptake at 90 h ([2]; blood, 90 h p.i., read-out: blood pool retention (biodistribution)): 11.5 ± 1.54 %ID/g
stable in FBS and PBS, no significant demetallation [3]: at least 24 h
mice weight versus free 177Lu treatment group (T3M-4 tumor; 500 μCi): slightly dropped
Structure (SMILES): CCCCCC(=O)N[C@H]1CSCc2cc(CSCCNC(=O)[C@H](CCCCNC(=O)CCCc3ccc(I)cc3)NC(=O)[C@@H](NC(=O)[C@H](CCSC)NC(=O)CN3CCN(CC(=O)O)CCN(CC(=O)O)CCN(CC(=O)O)CC3)C(C)C)cc(c2)CSC[C@@H](C(=O)O)NC(=O)[C@H](Cc2ccccc2)NC(=O)[C@H](CCC(N)=O)NC(=O)[C@H]([C@@H](C)O)NC(=O)[C@@H]2CCCN2C(=O)[C@@H]2CCCN2C1=O [[^177Lu]Lu-DOTA-FD3, metal not drawn]
tumor volume until the end of the observation (T3M-4 tumor; tumor volume around 135 mm^3 at onset, [177Lu]Lu-DOTA-FD3 at 500 μCi): satisfactorily controlled
tumor growth at the end of the study (HT1080-FAP tumor; average tumor volume 50 mm^3 at onset, single dose 200 μCi): substantially inhibited the tumor growth
mice that acquired complete response (CR) (HT1080-FAP tumor; average tumor volume 50 mm^3 at onset, single dose 200 μCi, 6 mice per group): 3 out of the 6
tumor relapse (HT1080-FAP tumor; [4]): relapsed from day 14 onward
tumor volume change after treatment (HT1080-FAP tumor; [4]): began to shrink from day 2
